Results reported in patent US10450317B2, “Notch pathway signaling inhibitor compounds” (Eli Lilly and Company, priority 2015, dated 2019).
Several values for one entry are separate records, joined by “and”; a condition that tells them apart may be missing. Equal values may be shown once.

Tested on: cleaved Notch1 (N1ICD)
Assay: In-vivo target inhibition study, cleaved N1ICD in lung by ELISA
Set-up: species or system Balb/C mice
Settings: mouse lung
Protocol: To evaluate in vivo effect of Compound 1, Isomer 2 and. Compound 2, Isomer 2 on inhibition of Notch processing pharmacodynamics (PD), animal studies were conducted in non-tumor bearing Balb/C mice (Charles River). A total of 5 mice are used for each group. Mice are fed ad libitum on normal chow. Treatment is initiated with oral administration (gavage) of compound or vehicle (1% Na-CMC in 0.25% Tween-80) in 0.2 mL volume. At designated time points (4 or 8 hours after the dose) following treatment, animals are sacrificed by CO2 asphyxiation and cervical dislocation. Tissues (Lungs) are removed and used for PD response analysis as measured by cleaved N1ICD.
To evaluate N1ICD levels in lung, approximately 75 mg is cut from the frozen tissue and minced prior to homogenization (actual mass recorded). […] are transferred to Lysing Matrix-D™ tubes and re-suspended in ice-cold XY lysis buffer (25 mM Tris pH 7.5, 10 μg/ml Trypsin/Chymotrypsin inhibitor, 10 μg/ml Aprotinin, 60 mM Beta-glycerol phosphate, 1% Triton® X-100, 10 mM NaF, 2.5 mM pyrophosphate, 150 mM NaCl, 15 mM ethylene diamine tetra acetic acid (EDTA) pH 8.0, 5 mM ethylene glycol-bis(2-aminoethylether)-N,N,N′,N′-tetra acetic acid (EGTA) pH 8.0, 1 mM Na Vanadate, 10 μg/ml Leupeptin, 1 mM dithiothreitol, 1 μM microcystin LR, 10 μg/ml N-p-tosyl-L-phenylalanine chloromethyl ketone (TPCK), 2 mM Nα-p-tosyl-L-arginine methyl ester hydrochloride (TAME), 15 mM 4-nitrophenyl phosphate di(tris) salt (PNPP), 0.1 mM 4-(2-aminoethyl) benzenesulfonyl fluoride hydrochloride (AEBSF), 5 mM benzamidine, 1 μM Okadaic Acid) containing 1× Complete tablet (Roche Complete™ No. 11697 498 001) and 1× Protease Inhibitor cocktail (Sigma-Aldrich P8340) at a mass: volume ratio of 75 mg/ml buffer. Tissues are homogenized in a Fast Prep FP120 homogenizer (Thermo Scientific, Rockford, Ill.) at a speed of 6.0 for 30 seconds at 4° C., followed by 15 minute incubation on ice. This is repeated for a total of 2-3 cycles until homogenization is complete. Lysates are spun in a 4° C. eppendorf centrifuge at 30,000 rpm for 15 minutes to remove debris. 400 μl of supernatant is removed and transferred to a new eppendorf tube and subjected to a freeze/thaw cycle. Samples are re-spun in a 4° C. eppendorf centrifuge at 30,000 rpm for 30 minutes and 120 μl of supernatant is collected for analysis. Total protein concentration is determined using Pierce BCA Protein Assay Kit™ (Thermo Scientific, Rockford, Ill.) using a Thermomax™ plate reader (Molecular Devices, Sunnyvale, Calif.). N1ICD levels are determined using a custom N1ICD ELISA. Analyte is captured with a cleaved Notch1 (Val1744)-specific custom rabbit monoclonal antibody and detected with a C-terminal Notch1 SULFO-TAG™ (Meso Scale Discovery, Gaithersburg, Md.) polyclonal sheep antibody (R&D Systems, Minneapolis, Minn.). Lysates are diluted to 2 μg/μl in ice-cold ELISA tris lysis buffer (R6OTX) (Meso Scale Discovery, Gaithersburg, Md.) containing 1× Complete tablet (Roche Complete™ mini No. 11 836 153 001) and 1× Protease Inhibitor cocktail (Sigma-Aldrich P8340), and 25 μl is added to the ELISA plate. Incubation of 50 μg protein lysate is done at RT for one hour each to capture analyte and with detection antibody. Plates are read on a Sector Imager 6000™ (Meso Scale Discovery, Gaithersburg, Md.). Background subtracted N1ICD is normalized to total protein and presented as % inhibition relative to the vehicle-treated group. N1ICD % inhibition and statistical significance (p value) as measured by Dunett's method in tumors harvested 4 hours after last dose for Compound 1, Isomer 2 or Compound 2, Isomer 2 is analyzed essentially as described above and summarized in Table 1.

[1] = oral 10 mg/kg, 4 hours following treatment

SMILES | % N1ICD inhibition (Ave ± SD; n = 1) (oral 0.3 mg/kg, 8 hours following treatment) | % N1ICD inhibition (Ave ± SD; n = 1) (oral 1 mg/kg, 8 hours following treatment) | % N1ICD inhibition (Ave ± SD; n = 1) (oral 3 mg/kg, 8 hours following treatment) | % N1ICD inhibition (Ave ± SD; n = 1) [1] | % N1ICD inhibition (Ave ± SD; n = 1) (oral 10 mg/kg, 8 hours following treatment, listed as 1, Isomer 2, 10 mg/kg) | % N1ICD inhibition (Ave ± SD; n = 1) (oral 30 mg/kg, 8 hours following treatment) | % N1ICD inhibition (Ave ± SD; n = 1) (oral 100 mg/kg, 8 hours following treatment) | % N1ICD inhibition (Ave ± SD; n = 1) (oral 10 mg/kg, 8 hours following treatment)
COc1ccc2c(c1)N1CCC(C)(C)C1=CC(=O)C2NC(=O)[C@H](C)NC(=O)CCC(F)(F)F (single isomer, unassigned) [Compound 1, Isomer 2] | −7 ± 26% | 6 ± 15% | 11 ± 13% | 70 ± 12% | 52 ± 31% and 65 ± 11% | 87 ± 3% | 92 ± 3% | –
C[C@H](NC(=O)CCC(F)(F)F)C(=O)NC1C(=O)C=C2N(CCC2(C)C)c2ncccc21 (single isomer, unassigned) [Compound 2, Isomer 2] | – | – | – | 65 ± 11% | – | – | – | 15 ± 14%
